Earlier results in patent publication US5021421A, “2-(1-Piperazinyl)-4-phenylcycloalkanopyridine derivatives, processes for the production thereof, and pharmaceutical composition containing the same” (Dainippon Pharmaceutical Co., Ltd., priority 1989, dated 1991).

Details: U.S. Pat. No. 4,831,034; cited from earlier work

Cc1ccc(CN2CCN(c3cc(-c4ccccc4)ccn3)CC2)cc1 [2-[4-(4-methylbenzyl)-1-piperazinyl]-4-phenylpyridine]
activity as an anti-psychotic drug or as a neuroleptic drug: weak activity
